Values after ≈ are worked out from the molar mass of the structure shown. Each block holds one molecule with its values, some of them ahead of it. Active and inactive are the calls of the source. The calls are words filed in the database; no cut-off is given here.
Assays:
[1] = target: Phosphatidylinositol 4-kinase beta (Homo sapiens, UniProt Q9UBF8); assay: Inhibition of human PI4KB (1 to 801 residues) by ADP Glo HTS assay
[2] = target: Phosphatidylinositol 3-kinase regulatory subunit alpha (Homo sapiens) (UniProt P27986); assay: Inhibition of human PI3K p85alpha (1 to 724 residues) at 50 uM by ADP Glo HTS assay
[3] = Clearance in Han Wistar rat at 4 umol/kg, iv or 10 umol/kg, po; type: ADME, organism-based; details: in vivo
[4] = target: Diacylglycerol kinase gamma (Homo sapiens) (UniProt P49619); assay: Inhibition of human DGKgamma (1 to 752 residues) at 50 uM by ADP Glo HTS assay
[5] = system: Phosphatidylinositol 4,5-bisphosphate 3-kinase catalytic subunit alpha isoform (Homo sapiens), P42336 [E545K]; assay: Inhibition of human PI3Kalpha (2 to 1068 residues)/p85 (1 to 724 residues) E545K mutant at 50 uM by ADP Glo HTS assay
[6] = target: T1, Phosphatidylinositol 4,5-bisphosphate 3-kinase catalytic subunit beta isoform (Homo sapiens, UniProt P42338); assay: Inhibition of PI3Kbeta in PTEN-deficient human MDA-MB-468 cells assessed as reduction in AKT phosphorylation at Ser473
[7] = AUC in mouse at 100 mg/kg, po; type: ADME, organism-based; details: in vivo
[8] = target: Phosphatidylinositol 4,5-bisphosphate 3-kinase catalytic subunit delta isoform (Homo sapiens, UniProt O00329); assay: Inhibition of PI3Kdelta (unknown origin)
[9] = target: Phosphoinositide 3-kinase regulatory subunit 4 (Homo sapiens, UniProt Q99570); assay: Inhibition of VPS15 (unknown origin)
[10] = target: T1, Phosphatidylinositol 4,5-bisphosphate 3-kinase catalytic subunit beta isoform; assay: Inhibition of PI3Kbeta (unknown origin)
[11] = system: Phosphatidylinositol 4,5-bisphosphate 3-kinase catalytic subunit alpha isoform (Homo sapiens), P42336 [E542K]; assay: Inhibition of human PI3Kalpha (2 to 1068 residues)/p85 (1 to 724 residues) E542K mutant at 50 uM by ADP Glo HTS assay
[12] = Octanol-buffer partition coefficient, log D of the compound at pH 7.4 by shake-flask method; type: physicochemical
[13] = Clearance in Beagle dog at 1 umol/kg, po; type: ADME, Canis lupus familiaris; details: in vivo
[14] = target: T2, Phosphatidylinositol 4,5-bisphosphate 3-kinase catalytic subunit gamma isoform (Homo sapiens, UniProt P48736); assay: Inhibition of human PI3Kgamma (2 to 1102 residues) at 50 uM by ADP Glo HTS assay
Target sequence in this assay (P48736 whole entry, looked up, the tested form may be a part, canonical isoform): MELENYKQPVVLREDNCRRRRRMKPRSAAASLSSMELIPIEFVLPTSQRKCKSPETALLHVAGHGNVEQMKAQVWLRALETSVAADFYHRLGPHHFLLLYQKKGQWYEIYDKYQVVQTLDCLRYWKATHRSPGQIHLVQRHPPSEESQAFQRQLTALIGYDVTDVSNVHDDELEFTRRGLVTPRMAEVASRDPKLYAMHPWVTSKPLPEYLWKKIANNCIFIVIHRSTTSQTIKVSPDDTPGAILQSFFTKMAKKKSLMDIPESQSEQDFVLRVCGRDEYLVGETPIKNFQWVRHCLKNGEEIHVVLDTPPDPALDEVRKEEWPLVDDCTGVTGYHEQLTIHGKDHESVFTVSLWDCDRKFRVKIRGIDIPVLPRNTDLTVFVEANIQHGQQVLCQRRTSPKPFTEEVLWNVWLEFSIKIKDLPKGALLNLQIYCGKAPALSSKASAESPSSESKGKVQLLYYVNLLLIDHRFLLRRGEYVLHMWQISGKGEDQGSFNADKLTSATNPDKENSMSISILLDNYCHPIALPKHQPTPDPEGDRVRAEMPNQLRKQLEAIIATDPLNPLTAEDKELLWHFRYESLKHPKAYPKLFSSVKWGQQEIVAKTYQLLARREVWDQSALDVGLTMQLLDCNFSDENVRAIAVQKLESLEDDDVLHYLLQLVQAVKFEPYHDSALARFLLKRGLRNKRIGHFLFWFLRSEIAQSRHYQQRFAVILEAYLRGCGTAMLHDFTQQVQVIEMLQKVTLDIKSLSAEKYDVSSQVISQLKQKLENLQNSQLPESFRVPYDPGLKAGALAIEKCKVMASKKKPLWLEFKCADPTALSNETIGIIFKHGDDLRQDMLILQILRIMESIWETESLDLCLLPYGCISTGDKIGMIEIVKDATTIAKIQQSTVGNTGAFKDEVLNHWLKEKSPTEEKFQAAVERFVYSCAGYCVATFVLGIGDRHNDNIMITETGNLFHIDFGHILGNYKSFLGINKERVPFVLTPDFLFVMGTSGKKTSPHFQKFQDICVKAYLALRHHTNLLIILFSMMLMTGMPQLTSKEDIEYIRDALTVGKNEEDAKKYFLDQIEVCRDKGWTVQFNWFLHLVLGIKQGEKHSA

[15] = target: Choline kinase alpha (Homo sapiens) (UniProt P35790); assay: Inhibition of human CHKalpha (1 to 457 residues) at 50 uM by ADP Glo HTS assay
[16] = Aqueous solubility of the compound in phosphate buffer at pH 7.4 using crystalline sample; type: physicochemical
[17] = Inhibition of PI3Kalpha mutant in human BT474 cells assessed as reduction in AKT phosphorylation at Thr308; type: cell-based; details: BT-474
[18] = target: Phosphatidylinositol 3-kinase regulatory subunit beta (Homo sapiens) (UniProt O00459); assay: Inhibition of human PI3K p85beta (1 to 724 residues) at 50 uM by ADP Glo HTS assay
[19] = target: Diacylglycerol kinase beta (Homo sapiens) (UniProt Q9Y6T7); assay: Inhibition of human DGKbeta (1 to 804 residues) at 50 uM by ADP Glo HTS assay
[20] = target: T2, Phosphatidylinositol 4,5-bisphosphate 3-kinase catalytic subunit gamma isoform; assay: Inhibition of PI3Kgamma (unknown origin)
Target sequence in this assay (P48736 whole entry, the tested form may be a part, canonical isoform): as the sequence (P48736 whole entry, looked up, the tested form may be a part, canonical isoform) above

[21] = system: MCF7; assay: Anti-tumor activity against human MCF7 cells harboring PI3KCA E545K mutant xenografted in Swiss nu/nu mouse assessed as tumor growth inhibition at 10 mg/kg, po administered twice daily for 21 days measured post last dose relative to control; type: functional; details: 504 h, read-out: TGI
[22] = system: MCF7; assay: Anti-tumor activity against human MCF7 cells harboring PI3KCA E545K mutant xenografted in Swiss nu/nu mouse assessed as tumor growth inhibition at 50 mg/kg, po administered twice daily for 21 days measured post last dose relative to control; type: functional; details: 504 h, read-out: TGI
[23] = target: Sphingosine kinase 1 (Homo sapiens) (UniProt Q9NYA1); assay: Inhibition of human SphK1 (1 to 384 residues) at 50 uM by […] HTS assay
[24] = target: Serine/threonine-protein kinase mTOR (Homo sapiens, UniProt P42345); assay: Inhibition of m-TOR (unknown origin)
[25] = Volume of distribution in Han Wistar rat at 4 umol/kg, iv or 10 umol/kg, po; type: ADME, organism-based; details: in vivo
[26] = Oral bioavailability in Beagle dog at 1 umol/kg; type: ADME, organism-based, Canis lupus familiaris; details: in vivo
[27] = Oral bioavailability in Han Wistar rat at 10 umol/kg; type: ADME, organism-based; details: in vivo
[28] = target: Phosphatidylinositol 4,5-bisphosphate 3-kinase catalytic subunit alpha isoform (Homo sapiens, UniProt P42336); assay: Inhibition of PI3Kalpha (unknown origin)
[29] = Apparent permeability of the compound across apical side to basolateral side in human Caco2 cells; type: ADME, cell-based; details: Caco-2
[30] = system: Canis familiaris; assay: Volume of distribution in Beagle dog at 1 umol/kg, po; type: ADME, Canis lupus familiaris; details: in vivo
[31] = target: Choline/ethanolamine kinase (Homo sapiens) (UniProt Q9Y259); assay: Inhibition of human CHKbeta (1 to 395 residues) at 50 uM by ADP Glo HTS assay
[32] = Cmax in mouse at 100 mg/kg, po; type: ADME, organism-based; set-up: dose 100 mg/kg, route oral; details: in vivo
[33] = system: MCF7; assay: Anti-tumor activity against human MCF7 cells harboring PI3KCA E545K mutant xenografted in Swiss nu/nu mouse assessed as tumor growth inhibition at 25 mg/kg, po administered twice daily for 21 days measured post last dose relative to control; type: functional; details: 504 h, read-out: TGI
[34] = target: Sphingosine kinase 2 (Homo sapiens) (UniProt Q9NRA0); assay: Inhibition of human SPHK 2 (1 to 654 residues) at 50 uM by ADP Glo HTS assay
[35] = target: Diacylglycerol kinase zeta (Homo sapiens) (UniProt Q13574); assay: Inhibition of human DGKzeta (1 to 929 residues) at 50 uM by ADP Glo HTS assay
[36] = Dissociation constant, pKa of the compound; type: physicochemical
[37] = Aqueous solubility of the compound in phosphate buffer at pH 7.4; type: physicochemical

Sequence of Phosphatidylinositol 4,5-bisphosphate 3-kinase catalytic subunit alpha isoform (P42336 whole entry, canonical isoform): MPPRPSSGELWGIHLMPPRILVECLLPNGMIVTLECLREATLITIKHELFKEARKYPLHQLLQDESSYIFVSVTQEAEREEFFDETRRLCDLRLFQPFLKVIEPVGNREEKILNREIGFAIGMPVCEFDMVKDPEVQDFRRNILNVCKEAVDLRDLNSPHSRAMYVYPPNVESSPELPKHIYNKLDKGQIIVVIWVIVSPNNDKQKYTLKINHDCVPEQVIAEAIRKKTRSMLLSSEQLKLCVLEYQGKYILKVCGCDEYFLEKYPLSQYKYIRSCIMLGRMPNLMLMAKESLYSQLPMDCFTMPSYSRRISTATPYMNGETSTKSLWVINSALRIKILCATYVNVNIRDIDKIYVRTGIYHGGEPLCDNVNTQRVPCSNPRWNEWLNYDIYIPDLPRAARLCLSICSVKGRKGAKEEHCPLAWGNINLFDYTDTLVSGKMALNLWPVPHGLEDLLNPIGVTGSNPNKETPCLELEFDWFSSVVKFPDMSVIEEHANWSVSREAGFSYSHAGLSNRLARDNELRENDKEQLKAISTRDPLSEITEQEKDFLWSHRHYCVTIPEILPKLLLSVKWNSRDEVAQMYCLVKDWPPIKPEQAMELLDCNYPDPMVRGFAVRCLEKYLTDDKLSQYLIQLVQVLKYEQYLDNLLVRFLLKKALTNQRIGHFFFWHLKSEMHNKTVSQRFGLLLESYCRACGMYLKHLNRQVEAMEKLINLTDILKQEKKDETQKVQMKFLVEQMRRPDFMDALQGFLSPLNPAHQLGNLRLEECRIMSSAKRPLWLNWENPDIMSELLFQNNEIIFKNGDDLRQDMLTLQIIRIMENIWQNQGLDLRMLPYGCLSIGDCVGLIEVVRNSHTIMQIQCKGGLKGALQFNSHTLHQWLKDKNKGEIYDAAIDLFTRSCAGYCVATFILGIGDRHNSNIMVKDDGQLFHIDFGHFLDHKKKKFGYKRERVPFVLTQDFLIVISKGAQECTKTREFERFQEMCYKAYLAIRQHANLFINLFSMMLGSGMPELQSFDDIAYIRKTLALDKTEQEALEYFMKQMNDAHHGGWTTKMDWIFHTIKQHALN
T1 sequence (P42338 whole entry, canonical isoform): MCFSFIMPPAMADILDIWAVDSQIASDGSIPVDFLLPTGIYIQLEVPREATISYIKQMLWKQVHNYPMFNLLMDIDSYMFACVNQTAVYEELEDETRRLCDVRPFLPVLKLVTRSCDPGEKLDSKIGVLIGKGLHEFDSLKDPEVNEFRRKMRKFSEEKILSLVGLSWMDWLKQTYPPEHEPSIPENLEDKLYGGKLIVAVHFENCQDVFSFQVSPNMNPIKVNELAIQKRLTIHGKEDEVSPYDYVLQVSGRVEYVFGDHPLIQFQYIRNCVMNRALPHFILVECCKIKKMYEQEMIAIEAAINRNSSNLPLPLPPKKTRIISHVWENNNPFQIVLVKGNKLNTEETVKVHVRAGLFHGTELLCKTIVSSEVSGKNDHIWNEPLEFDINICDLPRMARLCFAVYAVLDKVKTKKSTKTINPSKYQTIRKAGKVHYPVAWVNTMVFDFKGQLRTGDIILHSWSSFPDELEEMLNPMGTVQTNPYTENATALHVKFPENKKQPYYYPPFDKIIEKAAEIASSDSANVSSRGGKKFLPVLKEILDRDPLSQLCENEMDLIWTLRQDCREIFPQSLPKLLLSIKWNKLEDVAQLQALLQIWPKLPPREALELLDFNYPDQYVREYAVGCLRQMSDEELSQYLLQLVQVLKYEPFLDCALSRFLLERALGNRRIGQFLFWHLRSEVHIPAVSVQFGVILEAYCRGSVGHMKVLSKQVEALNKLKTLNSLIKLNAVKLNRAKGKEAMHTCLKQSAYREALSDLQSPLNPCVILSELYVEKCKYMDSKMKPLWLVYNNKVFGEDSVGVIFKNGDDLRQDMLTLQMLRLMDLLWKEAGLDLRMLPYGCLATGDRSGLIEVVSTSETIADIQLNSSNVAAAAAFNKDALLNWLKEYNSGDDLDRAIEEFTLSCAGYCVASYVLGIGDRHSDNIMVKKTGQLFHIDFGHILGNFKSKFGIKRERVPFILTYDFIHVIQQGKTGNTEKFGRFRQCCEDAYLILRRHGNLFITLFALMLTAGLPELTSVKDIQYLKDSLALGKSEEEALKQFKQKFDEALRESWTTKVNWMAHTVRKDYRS
Sequence of Sphingosine kinase 2 (Homo sapiens) (Q9NRA0 whole entry, the tested form may be a part): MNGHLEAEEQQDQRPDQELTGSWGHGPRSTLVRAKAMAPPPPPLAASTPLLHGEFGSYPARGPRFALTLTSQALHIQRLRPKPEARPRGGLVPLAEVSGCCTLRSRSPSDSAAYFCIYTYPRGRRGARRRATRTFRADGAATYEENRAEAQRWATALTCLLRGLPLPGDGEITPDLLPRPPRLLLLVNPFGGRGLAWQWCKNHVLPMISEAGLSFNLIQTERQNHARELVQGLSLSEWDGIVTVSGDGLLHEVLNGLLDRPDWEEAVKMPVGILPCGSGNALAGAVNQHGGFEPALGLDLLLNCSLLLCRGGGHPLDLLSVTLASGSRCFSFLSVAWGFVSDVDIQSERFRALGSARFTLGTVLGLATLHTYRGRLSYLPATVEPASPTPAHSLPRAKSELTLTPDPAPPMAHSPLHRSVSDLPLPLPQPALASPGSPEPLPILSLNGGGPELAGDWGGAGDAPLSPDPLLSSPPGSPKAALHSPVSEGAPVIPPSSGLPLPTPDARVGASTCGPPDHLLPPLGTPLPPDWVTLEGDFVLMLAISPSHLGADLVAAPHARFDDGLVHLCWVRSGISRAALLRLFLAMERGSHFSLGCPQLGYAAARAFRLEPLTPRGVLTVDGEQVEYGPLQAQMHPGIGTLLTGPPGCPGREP

SMILES: CNC(=O)c1nc(-c2nc(-c3cnc4ccccn34)c(C)nc2N)n(C)n1
- IC50 [1]: 2800 nM
- inhibition [2]: inactive
- clearance [3]: 11 mL/min/kg
- inhibition [4]: inactive
- inhibition [5]: inactive
- IC50 [6]: 8400 nM
- AUC [7]: 36.2 µM·h
- IC50 [8]: 16 nM
- IC50 [9]: 16000 nM
- IC50 [10]: 87 to 540 nM
- inhibition [11]: inactive
- logD [12]: 1.8
- CL/F [13]: 19 mL/min/kg
- inhibition [14]: inactive
- inhibition [15]: inactive
- solubility thermodynamic [16]: 26 µM (≈ 9.45 µg/mL)
- IC50 [17]: 87 nM
- inhibition [18]: inactive
- inhibition [19]: inactive
- IC50 [20]: 43 nM
- inhibition in vivo at 10 mg/kg [21]: 29%
- inhibition in vivo at 50 mg/kg [22]: 86%
- inhibition [23]: inactive
- IC50 [24]: 29000 nM
- Vd [25]: 0.9 L/kg
- bioavailability [26]: 60%
- bioavailability [27]: 46%
- IC50 [28]: 6 nM
- Papp A→B [29]: 6 ×10⁻⁶ cm/s
- Vd [30]: 0.8 L/kg
- inhibition [31]: inactive
- Cmax [32]: 18 µM
- inhibition in vivo at 25 mg/kg [33]: 44%
- inhibition [34]: inactive
- inhibition [35]: inactive
- pKa [36]: 6.2

SMILES: CN(C)CC(=O)N1CCC(n2cc(-c3cnc(N)c(-n4nnc5ccccc54)n3)cn2)CC1
- IC50 [17]: 58 nM

SMILES: Cc1nc(N)c(-c2cnn(C3CCN(C)CC3)n2)nc1-c1cnc2ccccn12
- IC50 [6]: 550 nM
- IC50 [10]: 76 nM
- IC50 [17]: 100 nM
- IC50 [28]: 8 nM

SMILES: CNC(=O)c1nc(-c2nc(-c3cnc4ccccn34)cnc2N)n(C)n1
- IC50 [6]: 21000 nM
- IC50 [10]: 1300 nM
- IC50 [17]: 380 nM
- IC50 [28]: 20 nM

SMILES: Cc1nc(N)c(-c2nc(C3CCN(C)CC3)nn2C)nc1-c1cnc2ccccn12
- IC50 [6]: 200 nM
- IC50 [10]: 32 nM
- IC50 [17]: 49 nM
- IC50 [28]: 5 nM

Stronger by IC50 [17], values ahead:

- clearance [3]: 27 mL/min/kg
- IC50 [6]: 1500 nM
- IC50 [10]: 24 to 180 nM
- logD [12]: 2.3
- solubility [37]: 7 µM (≈ 2.54 µg/mL)
- IC50 [17]: 24 nM
- Vd [25]: 0.8 L/kg
- bioavailability [27]: 9%
- IC50 [28]: < 10 nM
- Papp A→B [29]: 36 ×10⁻⁶ cm/s
- pKa [36]: 2.3
SMILES: CNC(=O)c1nc(-c2nc(-c3cnn4ccccc34)c(C)nc2N)n(C)n1

- IC50 [6]: 1500 nM
- IC50 [17]: 6 nM
SMILES: Cc1nc(N)c(-c2nc(C(=O)NCCN(C)C)nn2C)nc1-c1cnn2ccccc12

- IC50 [6]: 16000 nM
- IC50 [17]: 22 nM
SMILES: CO[C@H]1CC[C@H](NC(=O)c2nc(-c3nc(-c4cnc5ccccn45)c(C)nc3N)n(C)n2)CC1

— ChEMBL document CHEMBL4033707, “Discovery of a novel aminopyrazine series as selective PI3Kα inhibitors” (Bioorg Med Chem Lett, 2017)
